The values that follow come from patent US12162888B2, “Carboxamides as ubiquitin-specific protease inhibitors” (Valo Early Discovery, Inc., priority 2018, dated 2024).

Like-named read-outs stand apart in the source and are kept apart here.

This experiment deals with T1, USP28 (His-tagged USP28-FL-mammalian) (Homo sapiens, UniProt Q96RU2).
T1 construct: Expression of USP28 (1-1077)-TEV-6*His (pTT5 vector) was carried out in Expi293f cells; made in house; host or cells: Expi293F cells (pTT5 vector)
T1 sequence (Q96RU2 1-1077): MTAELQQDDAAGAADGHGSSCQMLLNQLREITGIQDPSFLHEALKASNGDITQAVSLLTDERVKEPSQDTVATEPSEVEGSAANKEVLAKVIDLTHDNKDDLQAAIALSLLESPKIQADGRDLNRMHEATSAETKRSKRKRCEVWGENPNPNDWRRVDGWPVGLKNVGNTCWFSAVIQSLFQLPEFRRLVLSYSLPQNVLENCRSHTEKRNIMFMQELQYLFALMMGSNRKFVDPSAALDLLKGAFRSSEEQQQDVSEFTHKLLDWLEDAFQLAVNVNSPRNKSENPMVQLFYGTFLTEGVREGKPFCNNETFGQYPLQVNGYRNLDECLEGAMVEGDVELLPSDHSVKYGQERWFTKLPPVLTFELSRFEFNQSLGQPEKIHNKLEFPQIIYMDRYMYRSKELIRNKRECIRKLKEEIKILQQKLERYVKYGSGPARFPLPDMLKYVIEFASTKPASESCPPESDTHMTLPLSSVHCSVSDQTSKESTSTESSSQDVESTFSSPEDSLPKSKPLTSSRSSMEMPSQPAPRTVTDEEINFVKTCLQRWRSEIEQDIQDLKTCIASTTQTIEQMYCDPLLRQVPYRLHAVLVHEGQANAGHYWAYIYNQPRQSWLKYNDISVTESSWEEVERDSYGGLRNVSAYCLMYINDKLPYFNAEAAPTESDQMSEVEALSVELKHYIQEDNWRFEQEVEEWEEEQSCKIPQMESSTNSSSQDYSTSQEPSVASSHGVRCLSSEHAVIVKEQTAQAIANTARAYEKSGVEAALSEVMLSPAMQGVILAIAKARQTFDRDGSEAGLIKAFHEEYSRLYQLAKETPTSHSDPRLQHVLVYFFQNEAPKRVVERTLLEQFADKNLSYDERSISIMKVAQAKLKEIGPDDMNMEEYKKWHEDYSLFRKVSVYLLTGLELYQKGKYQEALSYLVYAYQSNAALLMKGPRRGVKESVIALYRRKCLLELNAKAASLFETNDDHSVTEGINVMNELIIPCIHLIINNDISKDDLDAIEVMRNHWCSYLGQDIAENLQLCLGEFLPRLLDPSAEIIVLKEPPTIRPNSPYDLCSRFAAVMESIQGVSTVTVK
Put plainly: Ubiquitin-Rhodamine 110 Assay for USP28 Activity, Example A-1(a). It counts as biochemical. The essentials: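 IC50s were fitted with a 4-parameter logistic to percent inhibition relative to no-enzyme and DMSO controls, using Rhodamine 110 fluorescence (485/535 nm) released from 25 nM Ub-Rh110. The enzyme was Expi293F-expressed USP28-FL-His at […], preincubated 30 min with compound (10-point, 25 μM top) in Tris pH 8.0 buffer containing BGG and Triton X-100. Substrate turnover ran 45 min at room temperature and was stopped with 10 mM citric acid.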

Where [1] appears, read: biochemical IC50 range, Ubiquitin-Rhodamine 110 assay, read-out: USP28 A-1(a).
Setting [2] is: Ubiquitin-Rhodamine 110 biochemical assay, read-out: USP28 A-1(a) IC50 range.

`CNc1ncc(C(=O)N[C@H]2COc3cc(N4CCNCC4)ccc3C2)c2[nH]cc(Cl)c12` [Example 675, 3-chloro-4-(methylamino)-N-[(3R)-7-(piperazin-1-yl)-3,4-dihydro-2H-1-benzopyran-3-yl]-1H-pyrrolo[3,2-c]pyridine-7-carboxamide]: the IC50 under setting [1] lay in the range of 200 to 2000 nM.
Take `CO[C@@H]1CN(c2ccc3c(c2F)OC[C@H](NC(=O)c2sc4nc(C)ccc4c2N)C3)C[C@H]1N` [Example 91, 3-amino-N-[(3R)-7-[(3R,4R)-3-amino-4-methoxypyrrolidin-1-yl]-8-fluoro-3,4-dihydro-2H-1-benzopyran-3-yl]-6-methylthieno[2,3-b]pyridine-2-carboxamide]: under “Ubiquitin-Rhodamine 110 assay, read-out: USP28 A-1(a) IC50 range”, the IC50 lay within 200 to 2000 nM.
Consider `Cc1ccc2c(N)c(C(=O)N[C@H]3COc4cc(N5C[C@@H](N)[C@]6(CCCCO6)C5)ccc4C3)sc2n1` [Example 611-2, 3-amino-N-[(3R)-7-[(4R,5S)-4-amino-6-oxa-2-azaspiro[4.5]decan-2-yl]-3,4-dihydro-2H-1-benzopyran-3-yl]-6-methylthieno[2,3-b]pyridine-2-carboxamide], for which, under setting [1], the IC50 is 1 to 50 nM.
Still for that read-out and setting: to `Cc1ccc2c(N)c(C(=O)N[C@H]3COc4cc(OC[C@@H]5CNC[C@H]5C(F)(F)F)ccc4C3)sc2n1` [Example 687, 3-amino-6-methyl-N-[(3R)-7-{[(3S,4S)-4-(trifluoromethyl)pyrrolidin-3-yl]methoxy}-3,4-dihydro-2H-1-benzopyran-3-yl]thieno[2,3-b]pyridine-2-carboxamide] belongs 1 to 50 nM.
For `CO[C@H]1CN(c2ccc3c(n2)CC[C@H](NC(=O)c2sc4cnccc4c2N)C3)C[C@@H]1N` [Example 504, 3-amino-N-[(6S)-2-[(3S,4S)-3-amino-4-methoxypyrrolidin-1-yl]-5,6,7,8-tetrahydroquinolin-6-yl]thieno[2,3-c]pyridine-2-carboxamide], the IC50 under setting [2] is more than 2000 nM.
For `CCOc1ncc(C(=O)N[C@H]2COc3cc(N4CCNCC4)ccc3C2)c2c1CCCN2` [Example 678, 5-ethoxy-N-[(3R)-7-(piperazin-1-yl)-3,4-dihydro-2H-1-benzopyran-3-yl]-1,2,3,4-tetrahydro-1,6-naphthyridine-8-carboxamide], the IC50 under setting [1] lay within 1 to 50 nM.
Still for that read-out and setting: in the case of `COC1CCCN(c2cc(F)c3c(c2)OCC(NC(=O)c2sc4nc(C)ccc4c2N)C3)CC1N` [Example 690, 3-amino-N-[(3R)-7-[(3S,4S)-3-amino-4-methoxyazcpan-1-yl]-5-fluoro-3,4-dihydro-2H-1-benzopyran-3-yl]-6-methylthieno[2,3-b]pyridine-2-carboxamide] it was 1 to 50 nM; in that of `CNc1ncc(C(=O)N[C@H]2COc3cc(N4CCNCC4)ccc3C2)c2c1CCCN2` [Example 677, 5-(methylamino)-N-[(3R)-7-(piperazin-1-yl)-3,4-dihydro-2H-1-benzopyran-3-yl]-1,2,3,4-tetrahydro-1,6-naphthyridine-8-carboxamide], 200 to 2000 nM.
As to `CO[C@H]1CCCN(c2ccc3c(n2)CC[C@H](NC(=O)c2sc4nc(C)ccc4c2N)C3)C[C@H]1N` [Example 501, 3-amino-N-[(6S)-2-[(3R,4S)-3-amino-4-methoxyazepan-1-yl]-5,6,7,8-tetrahydroquinolin-6-yl]-6-methylthieno[2,3-b]pyridine-2-carboxamide], the IC50 under setting [2] is 200 to 2000 nM.
Take `CN[C@H]1CN(c2ccc3c(c2)OC[C@H](NC(=O)c2sc4nc(C)ccc4c2N)C3)C[C@H]1COC` [Example 679, 3-amino-N-[(3R)-7-[(3R,4R)-3-(methoxymethyl)-4-(methylamino)pyrrolidin-1-yl]-3,4-dihydro-2H-1-benzopyran-3-yl]-6-methylthieno[2,3-b]pyridine-2-carboxamide]: the IC50 under setting [1] lay in the range of 1 to 50 nM.
For “3-amino-N-[(6S)-2-[(3R,4S)-3-(methoxymethyl)-4-[(^2H3)methylamino]pyrrolidin-1-yl]-5,6,7,8-tetrahydroquinolin-6-yl]-6-methylthieno[2,3-b]pyridine-2-carboxamide [Example 487]”, the IC50 under setting [2] was in the range of 200 to 2000 nM.
As for `COC[C@@H]1CN(c2cc(F)c3c(c2)OC[C@H](NC(=O)c2sc4nc(C)ncc4c2N)C3)C[C@@H]1N` [Example 694, 5-amino-N-[(3R)-7-[(3R,4R)-3-amino-4-(methoxymethyl)pyrrolidin-1-yl]-5-fluoro-3,4-dihydro-2H-1-benzopyran-3-yl]-2-methylthieno[2,3-d]pyrimidine-6-carboxamide], the IC50 under setting [1] was in the range of 200 to 2000 nM.
`Cc1ccc2c(N)c(C(=O)N[C@H]3COc4cc(N5C[C@H](N)[C@@]6(CCCCO6)C5)ccc4C3)sc2n1` [Example 611-1, 3-amino-N-[(3R)-7-[(4S,5R)-4-amino-6-oxa-2-azaspiro[4.5]decan-2-yl]-3,4-dihydro-2H-1-benzopyran-3-yl]-6-methylthieno[2,3-b]pyridine-2-carboxamide]: under setting [1], the IC50 fell in the range of 1 to 50 nM.
As for `Cc1ccc2c(N)c(C(=O)N[C@H]3CCc4nc(N5CC[C@]6(CCCN6)C5)ccc4C3)sc2n1` [Example 505, 3-amino-N-[(6S)-2-[(5R)-1,7-diazaspiro[4.4]nonan-7-yl]-5,6,7,8-tetrahydroquinolin-6-yl]-6-methylthieno[2,3-b]pyridine-2-carboxamide], under setting [2], the IC50 lay in the range of 50 to 200 nM.
Take `Cc1ccc2c(N)c(C(=O)N[C@H]3COc4cc(N5CC6[C@H](C5)NCC6(F)F)ccc4C3)sc2n1` (stereo partly drawn) [Example 655, N-[(3R)-7-[(6aR)-3,3-difluorooctahydropyrrolo[3,4-b]pyrrol-5-yl]-3,4-dihydro-2H-1-benzopyran-3-yl]-3-amino-6-methylthieno[2,3-b]pyridine-2-carboxamide]: the IC50 under setting [1] was in the range of 1 to 50 nM.
The same measure, in the same setting: to `Cc1ccc2c(N)c(C(=O)N[C@H]3COc4cc(N5C[C@H](N)[C@@]6(C5)OCC[C@@H]6C)ccc4C3)sc2n1` [Example 612-1, 3-amino-N-[(3R)-7-[(4S,5R,9S)-9-amino-4-methyl-1-oxa-7-azaspiro[4.4]nonan-7-yl]-3,4-dihydro-2H-1-benzopyran-3-yl]-6-methylthieno[2,3-b]pyridine-2-carboxamide] belongs 1 to 50 nM.
The same measure, in the same setting: in the case of `Cc1ccc2c(N)c(C(=O)N[C@H]3COc4cc(N5C[C@@H](N)[C@@]6(CCCCO6)C5)ccc4C3)sc2n1` [Example 653, 3-amino-N-[(3R)-7-[(4R,5R)-4-amino-6-oxa-2-azaspiro[4.5]decan-2-yl]-3,4-dihydro-2H-1-benzopyran-3-yl]-6-methylthieno[2,3-b]pyridine-2-carboxamide] it was 1 to 50 nM; in that of `Cc1ccc2c(N)c(C(=O)NC3COc4cc(N5CC6NCC(F)(F)C6C5)ccc4C3)sc2n1` [Example 654, N-[(3R)-7-[(3aS,6aS)-3,3-difluorooctahydropyrrolo[3,4-b]pyrrol-5-yll-3,4-dihydro-2H-1-benzopyran-3-yl]-3-amino-6-methylthieno[2,3-b]pyridine-2-carboxamide], 1 to 50 nM.
Still for that read-out and setting: in the case of `Cc1ccc2c(N)c(C(=O)N[C@H]3COc4cc(N5C[C@H](N)[C@]6(CCCCO6)C5)ccc4C3)sc2n1` [Example 652, 3-amino-N-[(3R)-7-[(4S,5S)-4-amino-6-oxa-2-azaspiro[4.5]decan-2-yl]-3,4-dihydro-2H-1-benzopyran-3-yl]-6-methylthieno[2,3-b]pyridine-2-carboxamide] it was 1 to 50 nM.
As to `CN[C@@H]1CN(c2ccc3c(n2)CC[C@H](NC(=O)c2sc4nc(C)ccc4c2N)C3)C[C@@]12CCCCO2` [Example 503, 3-amino-6-methyl-N-[(6S)-2-[(4R,5S)-4-(methylamino)-6-oxa-2-azaspiro[4.5]decan-2-yl]-5,6,7,8-tetrahydroquinolin-6-yl]thieno[2,3-b]pyridine-2-carboxamide], under setting [2], the IC50 lay within 50 to 200 nM.
Take `CNc1ncc(C(=O)N[C@H]2COc3cc(N4CCNCC4)ccc3C2)c2[nH]ccc12` [Example 674, 4-(methylamino)-N-[(3R)-7-(piperazin-1-yl)-3,4-dihydro-2H-1-benzopyran-3-yl]-1Hpyrrolo[3,2-c]pyridine-7-carboxamide]: the IC50 under setting [1] was in the range of 200 to 2000 nM.
